Experiments:
[1] = system: cortical cell cultures; assay: Zn2+ entry into cortical cells (TSQ fluorescence); assay type: cell-based, mouse
Procedure: FIG. 10 is a graph plotting effects of sulfasalazine reducing Zn^2 entry into cortical cells. Sister cultures were exposed to 300 μM Zn^2+ for 30 min, alone or with inclusion of 30-300 μM sulfasalazine. Zn^2+ entry was assessed 30 min later by measuring fluorescence intensity of TSQ, a Zn^2+ chelating agent. (n=8 culture wells per condition). Asterisk indicates significant difference from relevant control (Zn^2 alone) at ρ<0.05, using ANOVA and Student-Neuman-Keuls' test.
(§1) Primary cortical cell cultrues from embryonic mice were prepared and used to examine neuroprotective action of compounds. Mouse cortical cell culture system has been extensively used to study mechanisms and pharmacological intervention of neuronal death in neurological diseases. In brief, mouse cerebral coritces were removed from brains of the 15 day—old—fetal mice, in accordance with a protocol approved by our institutional animal care committee. […]
Entry and accumulation of Zn^2+ into neurons were analyzed using TSQ (N-(6-methoxy-8-quinolyl)-p-toluene sulfonamide), a membrane-permeable Zn^2+-chelating dye (Weiss J H, Hartley D M, Koh J Y, Choi D W, 1993, Neuron, 10:43-49). Cultures were incubated in HCSS containing 0.01% TSQ for 5 min, observed under fluorescence microscopy with a UV filter (excitation 365 nm, dichroic 400 nm, barrier 450 nm), and the intensity of TSQ was analyzed using a fluorescence plate reader.

[2] = system: cocultures of cortical neurons and glia; assay: BSO-induced free radical neuronal death (LDH); assay type: cell-based, mouse; settings: 10 mM BSO; 30-300 μM sulfasalazine concurrent
Procedure: FIG. 7 is a graph plotting a dose-response effect of sulfasalazine against neuronal death following 24 hr-exposure to 10 mM BSO. Cortical cell cultures (DIV 12-14) were exposed to 10 mM L-buthionine-(S,R)-sulfoximine (BSO), alone or with 30-300 μM sulfasalazine. Neuronal death was assessed 24 hr later by measurement of LDH released into the bathing medium, mean ± SEM (n=8 culture wells per condition). Asterisk indicates significant difference from relevant control (BSO alone) at ρ<0.05, using ANOVA and Student-Neuman-Keuls' test.
as §1, with “committee. The neocortices were gently triturated and plated on 24 well plates (5 hemispheres/plate) precoated with 100 μg/ml poly-D-lysine and 4 μg/ml laminine.” for “committee.”
(§2) Overall cell injury was assessed microscopically under phase-contrast optics or by measuring amount of lactate dehydrogenase (LDH) released into the bathing medium 24 hr after neurotoxic insults as previously described (Koh and Choi, J Neurosci Methods 20:83-90, 1987). […]

[3] = system: cortical cell cultures; assay: Fe2+-induced production of reactive oxygen species (DCDHF fluorescence); assay type: cell-based, mouse
Procedure: FIG. 8 is a graph plotting effects of sulfasalazine against Fe^2+-induced production of reactive oxygen species. Cortical cell cultures (DIV 13-14) were exposed to a sham wash (control) or 50 μM Fe^2+, alone or with 100 μM sulfasalazine for the indicated points of time. Levels of ROS in neurons were analyzed by monitoring the fluorescent signal of oxidized DCDHF, mean ± S.E.M. (n=53−80 neurons randomly chosen under a phase-contrast optic). Asterisk indicates significant difference from the relevant control (Fe^2+ alone in each time point) at ρ<0.05 using ANOVA and Student-Neuman-Keuls' test.
Primary cortical cell cultrues from embryonic mice were prepared and used to examine neuroprotective action of compounds. […]
To analyze reactive oxygen species in cortical cells, cortical cultures were loaded with 10 μM 6-carboxy-2′,7′-dichlorodihydrofluorescein diacetate (DCDHF-DA) plus 2% Pluronic F-127 in HCSS solution containing (120 mM NaCl, 5 mM KCl, 1.6 mM MgCl2, 2.3 mM CaCl2, 15 mM Glucose, 20 mM HEPES, 10 mM NaOH) for 20 minutes at 37° C., washed three times with HCSS solution, and the fluorescence signal of DCF (Ex 1=488 nm, Em 1=510 nm), the oxidation product of DCDHF-DA, was analyzed on the stage of a Nikon Diaphot inverted microscope equipped with a 100W Xenon lamp and a Nikon 20X, 0.4 N.A. objective.

[4] = system: cortical cell cultures; assay: Neuronal death after oxygen and glucose deprivation (LDH); assay type: cell-based, mouse; settings: 300 μM sulfasalazine
Procedure: FIG. 11 is a graph plotting neuroprotective effects of sulfasalazine against deprivation of oxygen and glucose. Cortical cell cultures (DIV 14) were deprived of oxygen and glucose (OGD) for 45, 60 or 90 min, alone (black bars) or with inclusion of 300 μM sulfasalazine (gray bars). Neuronal death was assessed 24 hr later by measurement of LDH released into the bathing medium, mean ± SEM (n=4 culture wells per condition). Asterisk indicates significant difference from relevant control (OGD alone) at ρ<0.05, using ANOVA and Student-Neuman-Keuls' test.
Primary cortical cell cultrues from embryonic mice were prepared and used to examine neuroprotective action of compounds. Mouse cortical cell culture system has been extensively used to study mechanisms and pharmacological intervention of neuronal death in neurological diseases. […]
Oxygen or glucose deprivation: cortical cell cultures (DIV 15-17) were transferred to an anacrobic chamber containing 5% CO2, 10% H2, and 85% N2 as described before (Gwag B J, Lobner D, Koh J Y, Wie M B, and Choi D W, 1995, Neuroscience, 68:615-619). […] Neuronal injury was quantified 24 hr later.
as §2

[5] = system: cortical cell cultures; assay: Zn2+ neurotoxicity (LDH); assay type: cell-based, mouse; settings: 300 μM Zn2+ for 30 min; 10-100 μM sulfasalazine concurrent
Procedure: FIG. 9 is a graph plotting a dose-response effect of sulfasalazine against neuronal death 24 hr following exposure to 300 μM Zn^2+ for 30 min. Cortical cell cultures were exposed to 30-500 μM Zn^2+ for 30 min, alone (filled circles) or with inclusion of 100 μM sulfasalazine (open circles). Neuronal death was assessed 24 hr later by measurement of LDH released into the bathing medium, mean ± SEM (n=8 culture wells per condition). Asterisk indicates significant difference from relevant control (Zn^2+ alone) at ρ<0.05, using ANOVA and Student-Neuman-Keuls' test.
as §1, §2

[6] = system: cortical neurons; assay: NMDA-induced accumulation of intracellular free Ca2+ (fluo-3); assay type: cell-based, mouse; settings: 300 μM NMDA; 300 μM sulfasalazine
Procedure: FIG. 4 is a graph plotting effects of sulfasalazine against NMDA-induced accumulation of intracellular free Ca^2+. […] [Ca^2+], was analyzed in fluo-3-loaded neutrons immediately after treatment, mean ± S.E.M. (n÷55−94 randomly chosen neurons in 4-6 glass bottom dishes per condition), scaled to [Ca^2+], after the sham control (÷100%). Asterisk indicates significant difference from relevant control (NMDA alone), at ρ<0.05 using ANOVA and Student-Neuman-Keuls' test.
as §1, with “committee. The neocortices were gently triturated and plated on 24 well plates (5 hemispheres/plate) precoated with 100 μg/ml poly-D-lysine and 4 μg/ml laminine.” for “committee.”
Levels of intracellular free Ca^2+ ([Ca^2+]i) were analyzed using a Ca^2+ sensitive indicator flou-3 under a fluorescence microphotometry (Minta A. Kao J P. Tsien R Y. 1989, J Bio Chem. 264:8171-8178). […] The fluroescence images were analyzed using a QuantiCell 700 system (Applied Imaging, England).

[7] = system: cocultures of cortical neurons and glia; assay: Fe2+-induced free radical neuronal death (LDH); assay type: cell-based, mouse; settings: 50 μM Fe2+; 30-300 μM sulfasalazine concurrent
Procedure: FIG. 6 is a graph plotting a dose-response effect of sulfasalazine against neuronal death following 24 hr-exposure to 50 μM Fe^2+. […] Neuronal death was assessed 24 hr later by measurement of LDH released into the bathing medium, means ± S.E.M. (n=4 12 culture wells per condition). Asterisk indicates significant difference from relevant control (Fe^2+ alone) at ρ<0.05, using ANOVA and Student-Neuman-Keuls' test.
as §1, with “committee. The neocortices were gently triturated and plated on 24 well plates (5 hemispheres/plate) precoated with 100 μg/ml poly-D-lysine and 4 μg/ml laminine.” for “committee.”
as §2

[8] = man, 3-5 hrs after oral ingestion of a single 4 g dose; cited from earlier work
[9] = system: cortical cell cultures; assay: NMDA-induced 45Ca2+ uptake; assay type: cell-based, mouse; settings: for 45Ca2+ influx after NMDA: 300 μM NMDA, 10 min
Procedure: FIG. 5 is a graph plotting effects of sulfasalazine against NMDA-induced ^45Ca^2+ uptake. Cortical cell cultrues (DIV 12-14) were exposed to a sham wash (control) or 300 μM NMDA, alone or in the presence of 30-1000 μM sulfasalazine. Ca^2+ influx was analyzed 10 min later by measuring ^45Ca^2+ influx, mean ± S.E.M. (n=12 cultures per condition). Asterisk indicates significant difference from relevant control (NMDA alone), at ρ<0.05 using ANOVA and Student-Neuman-Keuls' test.
Primary cortical cell cultrues from embryonic mice were prepared and used to examine neuroprotective action of compounds. Mouse cortical cell culture system has been extensively used to study mechanisms and pharmacological intervention of neuronal death in neurological diseases. In brief, mouse cerebral coritces were removed from brains of the 15 day—old—fetal mice, in accordance with a protocol approved by our institutional animal care committee. The neocortices were gently triturated and plated on 24 well plates (5 hemispheres/plate) precoated with 100 μg/ml poly-D-lysine and 4 μg/ml laminine. Plating media consist of Eagles minimal essential media (MEM, Earles salts, supplied glutamine-free) supplemented with 5% horse serum, 5% fetal bovine serum, 2 mM glutamine, and 21 mM glucose. Cultures were maintained at 37° C. in a humidified 5% CO2 atmosphere. After 7 days in vitro (DIV 7), cultures were shifted into a growth medium identical to the plating medium but lacking fetal serum. At DIV 7-9, […] cytosine arabinofuranoside was included to halt overgrowth of glia. Mixed cultures of neurons and glia were then fed twice a week.
To analyze Ca^2+ uptake, cortical cell cultures (DIV 13-14) were added with 300 μM NMDA and 1.5 μCi ^45Ca^2+ for 10 min, washed thoroughly with HCSS, and lysed in 0.2% SDS. Levels of ^45Ca^2+ in the lysates were read in a Beckman Scintillation counter.

[10] = system: cocultures of mouse cortical neurons and glia; assay: NMDA-induced neuronal death (LDH efflux) in cortical cell cultures; assay type: cell-based; settings: for NMDA neurotoxicity (neuronal death 24 hr later): 300 μM NMDA for 10 min
Procedure: FIG. 2 is a graph plotting a dose-response effect of sulfasalazine against neuronal death 24 hr following a brief exposure to 300 μM NMDA. Cocultures of mouse cortical neurons and glia (DIV 12-14) were exposed to 300 μM NMDA for 10 min, alone or with inclusion of 10-1000 μM sulfasalazine. Neuronal death was analyzed by measuring LDH efflux into the bathing medium 24 hr later, mean ± S.E.M. (n−8−16 cultrues per condition), scaled to the mean LDH value corresponding to the near-complete neuronal death induced by 24 hr exposure to 500 μM NMDA (=100%). Asterisk indicates significant difference from relevant control (NMDA alone), at ρ<0.05 using ANOVA and Student-Neuman-Keuls' test.
FIG. 3 is a graph plotting neuroprotective effects of sulfasalazine against dose-dependent neurotoxicity by NMDA. Cortical cell cultures were exposed to 30-1000 μM NMDA for 10 min, alone or in the presence of 300 or 1000 μM sulfasalazine. Neuronal death was analyzed by measuring LDH efflux into the bathing medium 24 hr later, mean ± S.E.M. (n=8−16 cultures per condition). Asterisk indicates significant difference from relevant control (NMDA alone), at ρ<0.05 using ANOVA and Student-Neuman-Keuls' test.
as §1, with “committee. The neocortices were gently triturated and plated on 24 well plates (5 hemispheres/plate) precoated with 100 μg/ml poly-D-lysine and 4 μg/ml laminine.” for “committee.”
as §2

## O=C(O)c1cc(/N=N/c2ccc(S(=O)(=O)Nc3ccccn3)cc2)ccc1O [sulfasalazine]
[1]; 300 μM Zn2+ for 30 min, 300 μM sulfasalazine
  Zn2+ entry: slightly but significantly reduced
[1]; summary statement
  doses preventing influx and accumulation of Zn2+: 30-1,000 μM
[2]
  neuronal death 24 hr following continuous exposure to BSO: dose-dependently reduced
[3]; 50 μM Fe2+, 100 μM sulfasalazine
  production of ROS following exposure to Fe2+: reduced production of ROS
[3]; summary statement
  doses scavenging reactive oxygen species: 3 to 100 µM
[4]; OGD extended to 90 min
  neuroprotective effects after prolonged deprivation of oxygen and glucose: decreased
[4]; OGD for 45-60 min
  neuronal death following deprivation of oxygen and glucose: markedly reduced
[5]
  Zn2+ neurotoxicity: reduced Zn^2+ neurotoxicity in a dose-dependent manner
[6]
  NMDA-induced accumulation of [Ca2+]i: markedly reduced
[7]
  neuronal death 24 hr following continuous exposure to Fe2+: dose-dependently reduced
[8]
  serum concentrations: approximately 500 μM
[9]; 300 μM sulfasalazine
  45Ca2+ influx after NMDA: partially reduced
[9]; 1000 μM sulfasalazine
  45Ca2+ influx after NMDA: completely blocked
[9]; summary statement
  doses preventing influx and accumulation of Ca2+: 30-1,000 μM
[10]; 1 mM sulfasalazine
  NMDA neurotoxicity (neuronal death 24 hr later): completely blocked
[10]; 100-300 μM sulfasalazine concurrent
  NMDA neurotoxicity (neuronal death 24 hr later): partially reduced
[10]; NMDA up to 1 mM for 10 min, 300 or 1000 μM sulfasalazine
  neuroprotective effects with increasing doses of NMDA: did not interfere with the neuroprotective effects

Source: patent publication US6521640B1, “Method for interviewing neuronal death using sulfasalazine” (Neurotech Co., Ltd., priority 2000, dated 2003)
